How the values were obtained:
[1] = tested on: Corn Earworm (CEW) (Helicoverpa zea); assay: Bioassays on Corn Earworm (CEW), 128-well diet tray assay; assay type: in vivo; conditions: 168 h, 50 μg/cm^2 test compound on artificial diet, second instar larvae, 25° C., five to seven days, average of eight wells, read-out: CEW Rating (% mortality)
Experimental: (§1) Certain molecules disclosed in this document were tested against BAW and CEW using procedures described in the following examples. In the reporting of the results, the “BAW & CEW Rating Table” was used (See Table Section).
Bioassays on CEW (Helicoverpa zea)
Bioassays on CEW were conducted using a 128-well diet tray assay. one to five second instar CEW larvae were placed in each well (3 mL) of the diet tray that had been previously filled with 1 mL of artificial diet to which 50 μg/cm^2 of the test compound (dissolved in 50 μL of 90:10 acetone-water mixture) had been applied (to each of eight wells) and then allowed to dry. Trays were covered with a clear self-adhesive cover, and held at 25° C., 14:10 light-dark for five to seven days. Percent mortality was recorded for the larvae in each well; activity in the eight wells was then averaged. The results are indicated in the table entitled “Table 3: Assay Results” (See Table Section).

[2] = tested on: Beet Armyworm (BAW) (Spodoptera exigua); assay: Bioassays on Beet Armyworm (BAW), 128-well diet tray assay; assay type: in vivo; conditions: 168 h, 50 μg/cm^2 test compound on artificial diet, second instar larvae, 25° C., five to seven days, average of eight wells, read-out: BAW Rating (% mortality)
Experimental: as §1
Bioassays on BAW (Spodoptera exigua)
Bioassays on BAW were conducted using a 128-well diet tray assay. one to five second instar BAW larvae were placed in each well (3 mL) of the diet tray that had been previously filled with 1 mL of artificial diet to which 50 μg/cm^2 of the test compound (dissolved in 50 μL of 90:10 acetone-water mixture) had been applied (to each of eight wells) and then allowed to dry. Trays were covered with a clear self-adhesive cover, and held at 25° C., 14:10 light-dark for five to seven days. Percent mortality was recorded for the larvae in each well; activity in the eight wells was then averaged. The results are indicated in the table entitled “Table 3: Assay Results” (See Table Section).

Row | SMILES | mortality at 50 µg/cm2 [1] [%] | mortality at 50 µg/cm2 [2] [%]
1 | O=C(c1ccc(/C=C/C(c2cc(Cl)c(Cl)c(Cl)c2)C(F)(F)F)cc1Br)N1CCN(CC(F)(F)F)CC1 (centres unmarked) [AC101] | 0 | 0
2 | O=C(CNC(=O)c1ccc(/C=C/C(c2cc(F)c(Cl)c(F)c2)C(F)(F)F)cc1Br)NCC(F)(F)F (centres unmarked) [AC102] | 50 to 100 | 0
3 | CC(=O)N1CCC(NC(=O)c2ccc(/C=C/C(c3cc(Cl)c(Cl)c(Cl)c3)C(F)(F)F)cc2Br)CC1 (centres unmarked) [AC103, (E)-N-(1-acetylpiperidin-4-yl)-2-bromo-4-(4,4,4-trifluoro-3-(3,4,5-trichlorophenyl)but-1-en-1-yl)benzamide] | 50 to 100 | 50 to 100
4 | O=C(NC1CCN(C(=O)CC(F)(F)F)CC1)c1ccc(/C=C/C(c2cc(Cl)c(Cl)c(Cl)c2)C(F)(F)F)cc1Br (centres unmarked) [AC104, (E)-2-bromo-4-(4,4,4-trifluoro-3-(3,4,5-trichlorophenyl)but-1-en-1-yl)-N-(1-(3,3,3-trifluoropropanoyl)piperidin-4-yl)benzamide] | 50 to 100 | 50 to 100
5 | O=C(NC1CCN(CC(F)(F)F)CC1)c1ccc(/C=C/C(c2cc(Cl)c(Cl)c(Cl)c2)C(F)(F)F)cc1Br (centres unmarked) [AC105, (E)-2-bromo-4-(4,4,4-trifluoro-3-(3,4,5-trichlorophenyl)but-1-en-1-yl)-N-(1-(2,2,2-trifluoroethyl)piperidin-4-yl)benzamide] | 50 to 100 | 50 to 100
6 | CN1CCC(NC(=O)c2ccc(/C=C/C(c3cc(Cl)c(Cl)c(Cl)c3)C(F)(F)F)cc2Br)CC1 (centres unmarked) [AC106, (E)-2-bromo-N-(1-methylpiperidin-4-yl)-4-(4,4,4-trifluoro-3-(3,4,5-trichlorophenyl)but-1-en-1-yl)benzamide] | 50 to 100 | 50 to 100
7 | N#CCN1CCC(NC(=O)c2ccc(/C=C/C(c3cc(Cl)c(Cl)c(Cl)c3)C(F)(F)F)cc2Br)CC1 (centres unmarked) [AC107] | 50 to 100 | 0 to 50
8 | O=C(NC1CCN(C2COC2)CC1)c1ccc(/C=C/C(c2cc(Cl)c(Cl)c(Cl)c2)C(F)(F)F)cc1Br (centres unmarked) [AC108, (E)-2-bromo-N-(1-(oxetan-3-yl)piperidin-4-yl)-4-(4,4,4-trifluoro-3-(3,4,5-trichlorophenyl)but-1-en-1-yl)benzamide] | 0 | 0 to 50
9 | O=C(NC1CCN(CCO)CC1)c1ccc(/C=C/C(c2cc(Cl)c(Cl)c(Cl)c2)C(F)(F)F)cc1Br (centres unmarked) [AC109, (E)-2-bromo-N-(1-(2-hydroxyethyl)piperidin-4-yl)-4-(4,4,4-trifluoro-3-(3,4,5-trichlorophenyl)but-1-en-1-yl)benzamide] | 0 | 0
10 | CONC(=O)CNC(=O)c1ccc(/C=C/C(c2cc(Cl)c(Cl)c(Cl)c2)C(F)(F)F)cc1Br (centres unmarked) [AC110] | 50 to 100 | 50 to 100
11 | C=CCNC(=O)CNC(=O)c1ccc(/C=C/C(c2cc(Cl)c(Cl)c(Cl)c2)C(F)(F)F)cc1Br (centres unmarked) [AC111] | 50 to 100 | 50 to 100
12 | CN(C)NC(=O)CNC(=O)c1ccc(/C=C/C(c2cc(Cl)c(Cl)c(Cl)c2)C(F)(F)F)cc1Br (centres unmarked) [AC112] | 50 to 100 | 50 to 100
13 | O=C(NCCc1ccc(Cl)nc1)c1ccc(/C=C/C(c2cc(Cl)c(Cl)c(Cl)c2)C(F)(F)F)cc1Br (centres unmarked) [AC113] | 50 to 100 | 0 to 50
14 | O=C(NC1CCNCC1)c1ccc(/C=C/C(c2cc(Cl)c(Cl)c(Cl)c2)C(F)(F)F)cc1Br (centres unmarked) [AC114, (E)-2-bromo-N-(piperidin-4-yl)-4-(4,4,4-trifluoro-3-(3,4,5-trichlorophenyl)but-1-en-1-yl)benzamide] | 0 to 50 | 50 to 100
15 | Cc1cc(/C=C/C(c2cc(Cl)cc(Cl)c2)C(F)(F)F)ccc1C(=S)NCc1ccc(Cl)nc1 (centres unmarked) [AC115, (E)-N-((6-chloropyridin-3-yl)methyl)-4-(3-(3,5-dichlorophenyl)-4,4,4-trifluorobut-1-en-1-yl)-2-methylbenzothioamide] | 50 to 100 | 50 to 100
16 | Cc1cc(/C=C/C(c2cc(Cl)cc(Cl)c2)C(F)(F)F)ccc1C(=O)N(C)Cc1ccc(Cl)nc1 (centres unmarked) [AC117] | 0 | 50 to 100
17 | Cc1cc(/C=C/C(c2cc(Cl)cc(Cl)c2)C(F)(F)F)ccc1C(=O)NCC1CCCO1 (centres unmarked) [AC118] | 0 | 50 to 100
18 | CNC(=S)NC1CCc2cc(/C=C/C(c3cc(Cl)c(Cl)c(Cl)c3)C(F)(F)F)ccc21 (centres unmarked) [BC1, (E)-1-methyl-3-(5-(4,4,4-trifluoro-3-(3,4,5-trichlorophenyl)-but-1-enyl)-2,3-dihydro-1H-inden-1-yl)thiourea] | 50 to 100 | 50 to 100
19 | CCNC(=S)NC1CCc2cc(/C=C/C(c3cc(Cl)c(Cl)c(Cl)c3)C(F)(F)F)ccc21 (centres unmarked) [BC2] | 50 to 100 | 50 to 100

Row | SMILES | mortality at 50 µg/cm2 [1] [%] | mortality at 50 µg/cm2 [2] [%]
20 | C=CCNC(=S)NC1CCc2cc(/C=C/C(c3cc(Cl)c(Cl)c(Cl)c3)C(F)(F)F)ccc21 (centres unmarked) [BC3] | 50 to 100 | 50 to 100
21 | O=C(CC(F)(F)F)NC1CCc2cc(/C=C/C(c3cc(Cl)c(Cl)c(Cl)c3)C(F)(F)F)ccc21 (centres unmarked) [BC4, (E)-3,3,3-trifluoro-N-(5-(4,4,4-trifluoro-3-(3,4,5-trichlorophenyl)but-1-enyl)-2,3-dihydro-1H-inden-1-yl)propanamide] | 50 to 100 | 50 to 100
22 | O=C(CC(F)(F)F)NC1CCCc2cc(/C=C/C(c3cc(Cl)c(Cl)c(Cl)c3)C(F)(F)F)ccc21 (centres unmarked) [BC5] | 50 to 100 | 50 to 100
23 | O=C(NC1CCc2cc(/C=C/C(c3cc(Cl)c(Cl)c(Cl)c3)C(F)(F)F)ccc21)C1CC1 (centres unmarked) [BC6] | 50 to 100 | 50 to 100
24 | O=C(NC1CCCc2cc(/C=C/C(c3cc(Cl)c(Cl)c(Cl)c3)C(F)(F)F)ccc21)C1CC1 (centres unmarked) [BC7] | 50 to 100 | 50 to 100
25 | O=C(CC(F)(F)F)NC1CCc2cc(/C=C/C(c3cc(Cl)c(F)c(Cl)c3)C(F)(F)F)ccc21 (centres unmarked) [BC8] | 50 to 100 | 50 to 100
26 | O=C(Cc1ccc(Cl)nc1)NC1CCc2cc(/C=C/C(c3cc(Cl)c(F)c(Cl)c3)C(F)(F)F)ccc21 (centres unmarked) [BC9] | 50 to 100 | 50 to 100
27 | Fc1c(Cl)cc(C(/C=C/c2ccc3c(c2)CCC3NCCC(F)(F)F)C(F)(F)F)cc1Cl (centres unmarked) [BC10, (E)-5-(3-(3,5-dichloro-4-fluorophenyl)-4,4,4-trifluorobut-1-en-1-yl)-N-(3,3,3-trifluoropropyl)-2,3-dihydro-1H-inden-1-amine] | 50 to 100 | 50 to 100
28 | O=C(CC(F)(F)F)NCC(=O)n1ccc2cc(/C=C/C(c3cc(Cl)c(F)c(Cl)c3)C(F)(F)F)ccc21 (centres unmarked) [BC13, (E)-N-(2-(5-(3-(3,5-dichloro-4-fluorophenyl)-4,4,4-trifluorobut-1-en-1-yl)-1H-indol-1-yl)-2-oxoethyl)-3,3,3-trifluoropropanamide] | 50 to 100 | 50 to 100
29 | O=C(Cn1ncc2cc(/C=C/C(c3cc(Cl)c(F)c(Cl)c3)C(F)(F)F)ccc2c1=O)NCC(F)(F)F (centres unmarked) [BC14, (E)-2-(6-(3-(3,5-dichloro-4-fluorophenyl)-4,4,4-trifluorobut-1-en-1-yl)-1-oxophthalazin-2(1H)-yl)-N-(2,2,2-trifluoroethyl)acetamide] | 0 | 50 to 100
30 | CC(=O)NCc1ccc(/C=C/C(c2cc(Cl)cc(Cl)c2)C(F)(F)F)cc1 (centres unmarked) [CC1, (E)-N-(4-(3-(3,5-dichlorophenyl)-4,4,4-trifluorobut-1-enyl)benzyl)acetamide] | 0 | 0
31 | O=C(NCc1ccc(/C=C/C(c2cc(Cl)cc(Cl)c2)C(F)(F)F)cc1)C1CC1 (centres unmarked) [CC2] | 50 to 100 | 50 to 100
32 | O=C(CC(F)(F)F)NCc1ccc(/C=C/C(c2cc(Cl)cc(Cl)c2)C(F)(F)F)cc1 (centres unmarked) [CC3] | 50 to 100 | 50 to 100
33 | CCC(=O)NCc1ccc(/C=C/C(c2cc(Cl)cc(Cl)c2)C(F)(F)F)cc1 (centres unmarked) [CC4] | 0 to 50 | 50 to 100
34 | O=C(NCc1ccc(/C=C/C(c2cc(Cl)c(Cl)c(Cl)c2)C(F)(F)F)cc1)C1CC1 (centres unmarked) [CC5] | 50 to 100 | 50 to 100
35 | O=C(CC(F)(F)F)NCc1ccc(/C=C/C(c2cc(Cl)c(Cl)c(Cl)c2)C(F)(F)F)cc1 (centres unmarked) [CC6] | 50 to 100 | 50 to 100
36 | CC(=O)NCc1ccc(/C=C/C(c2cc(Cl)cc(Cl)c2)C(F)(F)F)cc1Cl (centres unmarked) [CC7, (E)-N-(2-chloro-4-(3-(3,5-dichlorophenyl)-4,4,4-trifluorobut-1-en-1-yl)benzyl)acetamide] | 50 to 100 | 50 to 100
37 | O=C(NCc1ccc(/C=C/C(c2cc(Cl)cc(Cl)c2)C(F)(F)F)cc1Cl)C1CC1 (centres unmarked) [CC8] | 50 to 100 | 50 to 100

— patent publication US9615576B2, “Pesticidal compositions and processes related thereto” (Dow AgroSciences LLC, priority 2011, dated 2017)
